Like-named read-outs stand apart in the source and are kept apart here.
Experiments:
[1] = Stability in cell culture media (Example 18); settings: for Media (5 μM) % Remaining 1 h (37° C.)§: data from single parent peak; for Media (5 μM) % Remaining 1 h (37° C.)*: sum of both peaks
Description: 98 μL of DMEM+10% FBS, +1% P/S, +1.5 g/L sodium bicarbonate cell culture media was mixed with 2 μL of DMSO and aliquotted into 96-well plates at 250 μL per 0, 1, 2, and 18 hour time point.
3×50 μL media samples in 96 were held in 96-well plates at −80° C. until the last time point was extracted. 200 μL of methanol containing IS was added and mixed by vortex at 1500 rpm for 1.5 minutes at room temperature. The samples were centrifuged at 4400 rpm for 10 minutes at 8° C.

[2] = Mouse plasma stability protocol, up to 1 h (Examples 16-18); settings: for % Remaining (1 h): % Remaining of parent after 1 h incubation in mouse plasma at 37° C. (10 μM); for % Remaining (1 h, 37° C.) / Mouse (10 μM) % Remaining 1 h (37° C.)§ / Mouse (10 μM) % Remaining 1 h (37° C.)*: mouse plasma; for Mouse (10 μM) % Remaining 1 h (37° C.)§: data from single parent peak; for Mouse (10 μM) % Remaining 1 h (37° C.)*: sum of both peaks
[3] = test system: human urinary bladder cancer cell line SW780; assay: Cytotoxicity assay (CellTiter-Glo, 72 h), SW780; assay type: cell-based; settings: SW780, 72 h, read-out: Cytotoxicity (IC50, nM) SW-780
Description: (§2) Cytotoxicity of SDC-TRAP molecules was determined in three cancer cell lines. […] 80 μL of CellTiter-Glo was added to each well, followed by room temperature incubation in the dark for 15 minutes. Cell was determined by luminescence. IC50 was calculated using XLfit™ software.

HER2 [4] = assay: HER2 degradation assay with BT-474 cell line (Example 12, FACS); assay type: cell-based, human
[5] = test system: human breast cancer cell line BT-474; assay: Cytotoxicity assay (CellTiter-Glo, 72 h), BT-474; assay type: cell-based; settings: BT-474, 72 h, read-out: Cytotoxicity (IC50, nM) BT-474
Description: as §2

[6] = test system: human urinary bladder cancer cell line RT-112; assay: Cytotoxicity assay (CellTiter-Glo, 72 h), RT-112; assay type: cell-based; settings: RT-112, 72 h, read-out: Cytotoxicity (IC50, nM) RT-112
Description: as §2

[7] = test system: HCT-116 human colorectal xenografts; assay: Mouse xenograft efficacy in HCT-116 colon cancer model; settings: IV, Q7D×3, then drug-free period; SDC-TRAP-0063 200 and 100 mg/kg, SDC-TRAP-0046 94 mg/kg, irinotecan 67 mg/kg, SYN-01 100 mg/kg
Description: The cells were maintained in vitro as a monolayer culture in McCoy's 5a Medium. Fetal bovine serum was then be added to the medium. The final concentration of fetal bovine serum was 10%. Cells were cultured at 37° C. and 5% CO2. The tumor cells were routinely sub-cultured twice weekly by trypsin-EDTA treatment. Cells in an exponential growth phase were harvested and counted for tumor inoculation.
100 18-22 g, 5-7 week old, female BALB/cA nude mice were inoculated with the HCT 116 cells (2.0×10^6, 1:1 with Matrigel) subcutaneously on the back of each animal (0.1 mL/mouse). When the average tumor volume reached about 150-250 mm^3, 60 of the inoculated mice was selected based on tumor growth and randomly grouped into 6 treatment groups (10 mice per group) according to the following table.
The administrations were made with 27-gauge IV needle.
During the treatment period, the implanted tumors were measured by caliper twice per week. The tumors were measured for the maximum width (X) and length (Y) and the tumor volumes (V) were calculated using the formula: V=(X^2Y)/2. The differences in the tumor volume between the control and treatment groups were analyzed for significance using the unpaired two-tailed Student's t-test. P<0.05 was considered to be statistically significant. The animal body weights were also weighed and recorded twice per week.

HER2 [8] = assay: HER2 degradation in BT-474 cells (Example 3, Methods 1 and 2); assay type: cell-based, human
Outline: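 BT-474 cells treated 24 h at 37 °C with 10-point 3-fold compound dilutions; HER2 read by in-cell immunofluorescence after paraformaldehyde fixation, signal normalized to DRAQ5 nuclear stain, EC50 from curve fit. Degradation also checked by western blot of cytosolic lysates against tubulin.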

[9] = Artificial membrane permeability assay (PAMPA); settings: same protocol, second table
Human H3122 NSCLC cells = assay: Cell viability assay (CellTiter-Glo) in H3122 cells (Example 4); assay type: cell-based; settings: NCI-H3122
Description: Human H3122 NSCLC cells were obtained and grown in RPMI in the presence of fetal bovine serum (10%), 2 mM L-glutamine and antibiotics (100 IU/ml penicillin and 100 μg/ml streptomycin, Sigma Aldrich.) Cells were maintained at 37° C., 5% CO2 atmosphere.
Cell viability was measured using the CellTiter-Glo® assay (Promega). In brief, cells were plated in 96-well plates in triplicate at optimal seeding density (determined empirically) and incubated at 37° C., 5% CO2 atmosphere for 24 hr prior to the addition of drug or vehicle (0.3% DMSO) to the culture medium. At the end of the assay, CellTiter-Glo was added to the wells per manufacturer's recommendation, shaken for two minutes and incubated for 10 minutes at room temperature. Luminescence (0.1 sec) was measured with a Victor II microplate reader (Perkin Elmer) and the resulting data were used to calculate cell viability, normalized to vehicle control.
Cells as described above were treated with exemplary SDC-TRAPs and their viability determined as above as well. The following table illustrates the results.

[10] = Stability in mouse plasma, 2 h at 37° C. (Example 5); assay type: in vitro ADME; settings: mouse, plasma, 2 h
Description: (§1) SDC-TRAP-0022 and SDC-TRAP-0028 were incubated in human and mouse plasma for 2 h at 37° C. and assayed for integrity at 0.25, 0.5, 1 and 2 h. The values reported below are the remaining of the parent compound at the end of the 2 h incubation period.

[11] = Stability in human plasma, 2 h at 37° C. (Example 5); assay type: in vitro ADME; settings: human, plasma, 2 h
Description: as §1

[12] = mouse, plasma, 1 h, 10 µM
in vivo = settings: female, SCID, mouse
H 3211 NSLC cells = assay: IC50 of continuous and pulsed exposure (Examples 9 and 10); assay type: cell-based; settings: two replicate columns
[13] = Tissue Distribution Data for SDC-TRAP-0046, Time (h) 0.083
[14] = Tissue Distribution Data for SDC-TRAP-0046, Time (h) 6
[15] = Tissue Distribution Data for SDC-TRAP-0046, Time (h) 12
[16] = Tissue Distribution Data for SDC-TRAP-0046, Time (h) 24
[17] = Tissue Distribution Data for SDC-TRAP-0046, Time (h) 48
[18] = after SDC-TRAP-0046 50 mg/110 mL/kg IV, DRD, 6 h
[19] = after SDC-TRAP-0046 50 mg/110 mL/kg IV, DRD, 12 h
[20] = after SDC-TRAP-0046 50 mg/110 mL/kg IV, DRD, 24 h
[21] = after SDC-TRAP-0046 50 mg/110 mL/kg IV, DRD, 48 h
[22] = Tissue Distribution Data for SDC-TRAP-0171, Time (h) 0.083
[23] = Tissue Distribution Data for SDC-TRAP-0171, Time (h) 1
[24] = Tissue Distribution Data for SDC-TRAP-0171, Time (h) 6
[25] = Tissue Distribution Data for SDC-TRAP-0171, Time (h) 24
[26] = Tissue Distribution Data for SDC-TRAP-0171, Time (h) 48

In the case of `CCc1c2c(nc3ccc(OC(=O)N4CCN(Cc5ccc(-n6c(O)nnc6-c6cc(C(C)C)c(O)cc6O)cc5)CC4)cc13)-c1cc3c(c(=O)n1C2)COC(=O)C3(O)CC` (stereo not drawn) [SDC-TRAP-0046, 4,11-diethyl-4-hydroxy-3,14-dioxo-3,4,12,14-tetrahydro-1H-pyrano[3′,4′:6,7]indolizino[1,2-b]quinolin-9-yl 4-(4-(3-(2,4-dihydroxy-5-isopropylphenyl)-5-hydroxy-4H-1,2,4-triazol-4-yl)benzyl)piperazine-1-carboxylate], the “Media (5 μM) % Remaining 19 h (37° C.)” value [1] is reported as 37%, the “Media (5 μM) % Remaining 1 h (37° C.)§” value [1] is reported as 62% and the “Media (5 μM) % Remaining 1 h (37° C.)*” value [1] is reported as 65%. For the same compound, the “% Remaining (1 h)” value [2] was 51.6%, the “% Remaining (1 h, 37° C.)” value [2] was 52% and the “Mouse (10 μM) % Remaining 1 h (37° C.)§” value [2] was 50%. The “Mouse (10 μM) % Remaining 1 h (37° C.)*” value [2] was 52%, the IC50 [3] was 489 nM and the IC50 (HER2 [4]) was 246 nM. The IC50 [5] was 205 nM, the IC50 [6] was 20 nM and the “antitumor activity in HCT-116 xenografts (FIG. 23)” value [7] was “better activity in inhibiting the growth of HCT-116 cells in vivo than either positive control group”. For the same compound, the “Plasma Conc.” value [13] was 360 µM, the “Tumor Conc.” value [13] was 6.94 nmol/g of tissue and the “Tumor/Plasma Ratio” value [13] was 0.0193. For the same compound, the “Plasma Conc.” value [14] was 5.88 µM, the “Tumor Conc.” value [14] was 4.97 nmol/g of tissue and the “Tumor/Plasma Ratio” value [14] was 0.844. For the same compound, the “Plasma Conc.” value [15] was 2.37 µM, the “Tumor Conc.” value [15] was 5.21 nmol/g of tissue and the “Tumor/Plasma Ratio” value [15] was 2.20. For the same compound, the “Plasma Conc.” value [16] was 0.0542 µM, the “Tumor Conc.” value [16] was 2.19 nmol/g of tissue and the “Tumor/Plasma Ratio” value [16] was 40.3. The “Plasma Conc.” value [17] was “BQL”, the “Tumor Conc.” value [17] was 0.188 nmol/g of tissue and the “Plasma Conc.” value [18] was 5.88 µM. The “Tumor Conc.” value [18] was 4.97 nmol/g of tissue, the “Plasma Conc.” value [19] was 2.37 µM and the “Tumor Conc.” value [19] was 5.21 nmol/g of tissue. The “Plasma Conc.” value [20] was 0.0542 µM, the “Tumor Conc.” value [20] was 2.19 nmol/g of tissue and the “Plasma Conc.” value [21] was “BQL”. For the same compound, the “Tumor Conc.” value [21] was 0.188 nmol/g of tissue, the “Tumor/Plasma Ratio” value (after SDC-TRAP-0046 IV, 6 h) was 0.844 and the “Tumor/Plasma Ratio” value (after SDC-TRAP-0046 IV, 12 h) was 2.20. For the same compound, the “Tumor/Plasma Ratio” value (after SDC-TRAP-0046 IV, 24 h) was 40.3, the “Tumor/Plasma Ratio” value (after SDC-TRAP-0046 IV, […]) was 0.0193 and the IC50 (HER2 [8]) was 246 nM. For the same compound, the “Mass Retention” value [9] was 88.1%.
For `CCc1c2c(nc3ccc(OCC(=O)N(C)CCOCCn4ccc5cc(-n6c(O)nnc6-c6cc(C(C)C)c(O)cc6O)ccc54)cc13)-c1cc3c(c(=O)n1C2)COC(=O)C3(O)CC` (stereo not drawn) [SDC-TRAP-0028, 2-((4,11-diethyl-4-hydroxy-3,14-dioxo-3,4,12,14-tetrahydro-1H-pyrano[3′,4′: 6,7]indolizino[1,2-b]quinolin-9-yl)oxy)-N-(2-(2-(5-(3-(2,4-dihydroxy-5-isopropylphenyl)-5-hydroxy-4H-1,2,4-triazol-4-yl)-1H-indol-1-yl)ethoxy)ethyl)-N-methylacetamide], the IC50 (Human H3122 NSCLC cells) was 909 nM, the “% Remaining 2 h (37° C.), MO” value ([10]; 1 μM) was 53% and the “% Remaining 2 h (37° C.), MO” value ([10]; 10 μM) was 47%. For the same compound, the “% Remaining 2 h (37° C.), HU” value ([11]; 1 μM) was 51%, the “% Remaining 2 h (37° C.), HU” value ([11]; 10 μM) was 65% and the “% Remaining (1 h)” value [12] was 40.9%. For the same compound, the “% Remaining (1 h, 37° C.)” value [12] was 41%.
For `CC(C)c1cc(-c2nnc(O)n2-c2ccc(CN3CCN(C(=O)Oc4ccc(COC(=O)Nc5cccc6c5CN(C5CCC(=O)NC5=O)C6=O)cc4)CC3)c(F)c2)c(O)cc1O` (stereo not drawn) [SDC-TRAP-0171, 4-((((2-(2,6-dioxopiperidin-3-yl)-1-oxoisoindolin-4-yl)carbamoyl)oxy)methyl)phenyl-4-(4-(3-(2,4-dihydroxy-5-isopropylphenyl)-5-hydroxy-4H-1,2,4-triazol-4-yl)-2-fluorobenzyl)piperazine-1-carboxylate], the “% Remaining (1 h)” value [2] was 17.7%, the IC50 [3] was 275 nM and the IC50 (HER2 [4]) was 199 nM. It also gave an IC50 [5] of 58 nM, an IC50 [6] of 20 nM and a Kp at 1 h (in vivo) of 0.0589. It also gave a Kp at 6 h (in vivo) of 1.59, a Kp at 24 h (in vivo) of 100 and a Kp at […] (in vivo) of 0.0179. It also gave a concentration at 1 h (in vivo) of 217 µM, a concentration at 6 h (in vivo) of 4.51 µM and a concentration at 24 h (in vivo) of 0.028 µM. The concentration at 48 h (in vivo) was 0.241 µM, the concentration at […] (in vivo) was 918 µM and the “Plasma Conc.” value [22] was 618 µM. The “Tumor Conc.” value [22] was 0.083 nmol/g of tissue, the “Tumor/Plasma Ratio” value [22] was 0.0164 and the “Plasma Conc.” value [23] was 32.2 µM. The “Tumor Conc.” value [23] was 1 nmol/g of tissue, the “Tumor/Plasma Ratio” value [23] was 0.249 and the “Plasma Conc.” value [24] was 1.21 µM. The “Tumor Conc.” value [24] was 6 nmol/g of tissue, the “Tumor/Plasma Ratio” value [24] was 3.10 and the “Plasma Conc.” value [25] was 0.00162 µM. For the same compound, the “Tumor Conc.” value [25] was 24 nmol/g of tissue, the “Tumor/Plasma Ratio” value [25] was 407 and the “Plasma Conc.” value [26] was “BQL”. The “Tumor Conc.” value [26] was 48 nmol/g of tissue, the “Tumor Conc.” value (Tissue Distribution Data for SDC-TRAP-0178, Time (h) 0.083) was 16.4 nmol/g of tissue and the “Tumor Conc.” value (Tissue Distribution Data for SDC-TRAP-0178, Time (h) 1) was 12.8 nmol/g of tissue. The “Tumor Conc.” value (Tissue Distribution Data for SDC-TRAP-0178, Time (h) 6) was 7.17 nmol/g of tissue, the “Tumor Conc.” value (Tissue Distribution Data for SDC-TRAP-0178, Time (h) 24) was 2.81 nmol/g of tissue and the “Tumor Conc.” value (Tissue Distribution Data for SDC-TRAP-0178, Time (h) 48) was 1.01 nmol/g of tissue.
In the case of `CCc1c2c(nc3ccc(OC(=O)N(C)CCOCCn4ccc5cc(-n6c(O)nnc6-c6cc(C(C)C)c(O)cc6O)ccc54)cc13)-c1cc3c(c(=O)n1C2)COC(=O)C3(O)CC` (stereo not drawn) [SDC-TRAP-0029, 4,11-diethyl-4-hydroxy-3,14-dioxo-3,4,12,14-tetrahydro-1H-pyrano[3′,4′:6,7]indolizino[1,2-b]quinolin-9-yl (2-(2-(5-(3-(2,4-dihydroxy-5-isopropylphenyl)-5-hydroxy-4H-1,2,4-triazol-4-yl)-1H-indol-1-yl)ethoxy)ethyl)(methyl)carbamate], the “Media (5 μM) % Remaining 19 h (37° C.)” value [1] is reported as 29%, the “Media (5 μM) % Remaining 1 h (37° C.)§” value [1] is reported as 43% and the “Media (5 μM) % Remaining 1 h (37° C.)*” value [1] is reported as 46%. The “% Remaining (1 h)” value [2] was 47.0%, the “% Remaining (1 h, 37° C.)” value [2] was 47% and the “Mouse (10 μM) % Remaining 1 h (37° C.)§” value [2] was 44%. The “Mouse (10 μM) % Remaining 1 h (37° C.)*” value [2] was 47%, the IC50 (HER2 [4]) was 1370 nM and the IC50 (Human H3122 NSCLC cells) was 125 nM. The IC50 (H 3211 NSLC cells; 1 h, read-out: IC50, 1h-pulse/71h-compound free, 7.5 × 10^3 cells/well) was over 3000 nM, the IC50 (H 3211 NSLC cells; read-out: IC50, 1h-pulse/71h-compound free, 7.5 × 10^3 cells/well) was over 3000 nM and the IC50 (HER2 [8]) was 1600 nM. For the same compound, the “Mass Retention” value [9] was 84.0%.
